From paper PMC6912857 (Journal of Medicinal Chemistry, 2019)
“Also recorded” adds a separate entry of the source. Each block holds one molecule with its values, some of them ahead of it.

Assays:
[1] = molecular target: hH3R (Homo sapiens, UniProt Q9Y5N1); assay: CRE-luciferase reporter gene assay, hH3R expressed on HEK293T cells; format: cell-based; conditions: intrinsic activity compared to histamine
[2] = system: rats; conditions: cited from earlier work
[3] = cited from earlier work
[4] = molecular target: T1, mH4R (Mus musculus, UniProt Q91ZY2); assay: CRE-luciferase reporter gene assay, mH4R expressed on HEK293T cells; format: cell-based
T1 sequence (Q91ZY2 1-391): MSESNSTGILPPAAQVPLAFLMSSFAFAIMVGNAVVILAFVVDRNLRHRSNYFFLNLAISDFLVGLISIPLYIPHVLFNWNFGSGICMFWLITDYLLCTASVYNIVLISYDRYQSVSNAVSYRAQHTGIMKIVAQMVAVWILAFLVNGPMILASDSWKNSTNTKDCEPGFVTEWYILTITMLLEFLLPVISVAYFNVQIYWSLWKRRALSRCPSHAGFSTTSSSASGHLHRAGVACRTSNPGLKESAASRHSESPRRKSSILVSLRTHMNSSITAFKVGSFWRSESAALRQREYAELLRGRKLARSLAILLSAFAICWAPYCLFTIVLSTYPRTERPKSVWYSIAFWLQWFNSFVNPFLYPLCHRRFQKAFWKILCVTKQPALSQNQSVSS

[5] = molecular target: H1R (Homo sapiens, UniProt P35367); assay: NFAT-luciferase reporter gene assay, H1R; format: cell-based; conditions: up to 10 μM
Sequence of H1R (P35367 whole entry, species assumed): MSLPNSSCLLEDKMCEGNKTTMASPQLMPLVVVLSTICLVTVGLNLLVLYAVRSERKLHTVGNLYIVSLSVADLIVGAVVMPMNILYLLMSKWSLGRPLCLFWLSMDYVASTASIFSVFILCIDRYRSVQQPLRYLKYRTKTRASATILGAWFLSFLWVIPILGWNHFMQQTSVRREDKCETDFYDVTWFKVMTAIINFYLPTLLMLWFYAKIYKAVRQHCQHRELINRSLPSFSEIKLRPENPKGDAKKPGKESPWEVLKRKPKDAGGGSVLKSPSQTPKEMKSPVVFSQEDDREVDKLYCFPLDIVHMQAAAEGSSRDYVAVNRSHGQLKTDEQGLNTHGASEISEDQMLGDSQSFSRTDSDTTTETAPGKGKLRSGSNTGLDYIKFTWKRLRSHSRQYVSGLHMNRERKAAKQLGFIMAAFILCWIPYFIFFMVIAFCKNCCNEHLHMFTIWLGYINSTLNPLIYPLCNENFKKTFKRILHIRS

[6] = molecular target: H2R (Homo sapiens, UniProt P25021); assay: CRE-luciferase reporter gene assay, H2R; format: cell-based; conditions: up to 10 μM
Sequence of H2R (P25021 whole entry, species assumed): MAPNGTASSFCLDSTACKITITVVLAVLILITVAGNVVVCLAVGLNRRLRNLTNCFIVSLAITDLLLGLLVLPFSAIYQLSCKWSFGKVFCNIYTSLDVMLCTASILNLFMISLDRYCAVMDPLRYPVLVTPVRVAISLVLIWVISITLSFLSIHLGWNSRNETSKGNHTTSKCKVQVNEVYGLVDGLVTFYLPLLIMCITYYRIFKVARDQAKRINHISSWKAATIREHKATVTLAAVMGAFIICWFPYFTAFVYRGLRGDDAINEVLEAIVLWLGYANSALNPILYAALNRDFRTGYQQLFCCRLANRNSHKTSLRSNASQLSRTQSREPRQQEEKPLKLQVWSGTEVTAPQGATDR

[7] = Nephelometry / aqueous solubility; format: physicochemical; conditions: up to 100 mM concentration
[8] = system: Male C57Bl6 mice; assay: Social recognition test in mice
[9] = Metabolic stability in mouse liver microsomes

Sequence of hH3R (Q9Y5N1 whole entry): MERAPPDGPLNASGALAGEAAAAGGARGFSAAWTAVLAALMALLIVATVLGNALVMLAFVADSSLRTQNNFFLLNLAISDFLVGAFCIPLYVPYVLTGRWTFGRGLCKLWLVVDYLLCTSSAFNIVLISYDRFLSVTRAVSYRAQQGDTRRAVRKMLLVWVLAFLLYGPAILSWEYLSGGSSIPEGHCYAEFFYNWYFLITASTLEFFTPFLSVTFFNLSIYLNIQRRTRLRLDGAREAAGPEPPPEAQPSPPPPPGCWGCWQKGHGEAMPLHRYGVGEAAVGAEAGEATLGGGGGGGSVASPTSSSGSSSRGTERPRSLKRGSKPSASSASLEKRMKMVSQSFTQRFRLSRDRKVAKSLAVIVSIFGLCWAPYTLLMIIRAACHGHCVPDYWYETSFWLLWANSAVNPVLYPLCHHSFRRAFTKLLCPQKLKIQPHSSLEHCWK

α (intrinsic activity) [1]: ~1.0
Structure (SMILES): CCNC1CN(c2cc(CC)nc(N)n2)C1 [12c, 4-Ethyl-6-(3-(ethylamino)azetidin-1-yl)pyrimidin-2-amine]

Structure (SMILES): N=C(N)SCCc1cnc[nH]1 [Imetit, imetit]
effect on memory in the object recognition and passive avoidance tests [2]: memory impairments

Structure (SMILES): c1ncc(CC2CCNCC2)[nH]1 [immepip]
effect on memory in the social recognition test [3]: cause amnesia

selectivity in potency mH3R vs mH4R [4]: > 10 fold
activation of H1R [5]: does not activate
activation of H2R [6]: does not activate
microprecipitation (nephelometry) [7]: no microprecipitation
slower elimination compared with the reference control verapamil ([9]; mouse liver microsomes): more than 2 times
half-life at 50 μM ([9]; mouse, microsomes, pH 7.4): 2.18 h
Structure (SMILES): CCCNC1CN(c2ccnc(N)n2)C1.O.O=C(O)/C=C/C(=O)O [14d, 4-(3-(Propylamino)azetidin-1-yl)pyrimidin-2-amine Fumarate Hydrate]
CNS / brain penetration ([8]; indicated by effects in the in vivo social memory test, 5 mg/kg i.p., 5 mg/kg): clearly penetrating the CNS; also recorded: appreciable brain penetration
discrimination index (DI) ([8]; mice, 5 mg/kg i.p.): negative
social recognition memory (discrimination of novel vs familiar mouse) ([8]; mice, 5 mg/kg i.p. 30 min before the training session, 5 mg/kg): amnesic effects; also recorded: did not discriminate between the novel and the familiar mouse; also recorded: impairs social recognition
exploration time of the cage during test ([8]; mice, 5 mg/kg i.p., during test): 148.3 ± 69.4 s
exploration time of the cage during training ([8]; mice, 5 mg/kg i.p., during training): 136.2 ± 44.1 s
sociability ([8]; mice, 5 mg/kg i.p., training session): did not affect

Structure (SMILES): S=C(NC1CCCCC1)N1CCC(c2cnc[nH]2)CC1 [thioperamide]
effect on memory in the social recognition test [3]: improve short-term memory
